Test results reported in patent publication US20190029257A1, “APPLICATION FOR HERBICIDE-TOLERANT PROTEIN” (BEIJING DABEINONG TECHNOLOGY GROUP CO., LTD., priority 2016, published 2019).

Tests used:
Format in all cases: in vivo
[1] = system: transgenic soybean plants (ALT-1, ALT-2 and ALT-3); test: Halosulfuron-methyl tolerance of soybean plants; conditions: 34 g ai/ha; summary of Table 3
Protocol: Gm cytoplasmic ALT-1-01 soybean plants, Gm chloroplastic ALT-1-01 soybean plants, Gm cytoplasmic ALT-2-01 soybean plants, Gm chloroplastic ALT-2-01 soybean plants, Gm cytoplasmic ALT-3-01 soybean plants, Gm chloroplastic ALT-3-01 soybean plants and wild-type soybean plants were respectively taken and sprayed with halosulfuron-methyl (34 g ai/ha, 1-fold field concentration) and a blank solvent (water). The damage degree caused by the herbicide was measured for each plant according to the leaf curl degree and the growth point damage degree 3 days after spraying (3 DAT), 7 days after spraying (7 DAT), 14 days after spraying (14 DAT) and 21 days after spraying (21 DAT), respectively: considering conditions of leaves being flat as the untreated plants and growth points being intact as having a damage degree of 0%; considering conditions of veins being locally browned, new leaves being malformed and plant growth being slow as having a damage degree of 50%; and considering conditions of veins being purple to whole plant being dead and growth points being browned and dry as having a damage degree of 100%. […]

[2] = system: Zm chloroplastic ALT-1-02 maize plants; test: Halosulfuron-methyl tolerance of maize plants (damage degree); conditions: 36 g ai/ha (4x Hal.); for Average damage % 3 DAT: 3 days after spraying; for Average damage % 7 DAT: 7 days after spraying; for Average damage % 14 DAT: 14 days after spraying; for Average damage % 21 DAT: 21 days after spraying
Text: (§1) The herbicide tolerance effects of Zm cytoplasmic ALT-1-02 maize plants, Zm chloroplastic ALT-1-02 maize plants, Zm cytoplasmic ALT-2-02 maize plants, Zm chloroplastic ALT-2-02 maize plants, Zm cytoplasmic ALT-3-02 maize plants, Zm chloroplastic ALT-3-02 maize plants and wild-type maize plants on halosulfuron-methyl were detected (at V3-V4 stage), respectively.
(§2) Zm cytoplasmic ALT-1-02 maize plants, Zm chloroplastic ALT-1-02 maize plants, Zm cytoplasmic ALT-2-02 maize plants, Zm chloroplastic ALT-2-02 maize plants, Zm cytoplasmic ALT-3-02 maize plants, Zm chloroplastic ALT-3-02 maize plants and wild-type maize plants were respectively taken and sprayed with halosulfuron-methyl (36 g ai/ha, 4-fold field concentration) and a blank solvent (water). The damage degree caused by the herbicide was measured for each plant according to the plant growth status 3 days after spraying (3 DAT), 7 days after spraying (7 DAT), 14 days after spraying (14 DAT) and 21 days after spraying (21 DAT), respectively: considering a growth status equivalent to that of the untreated plants as having a damage degree of 0%; considering conditions of leaves being partially chlorotic and yellow but substantially not affecting the plant normal growth as having a damage degree of 50%; and considering the whole plant being purple and dying as having a damage degree of 100%. There were 2 strains in Zm cytoplasmic ALT-1-02 maize plants in total (S13 and S14), 2 strains in Zm chloroplastic ALT-1-02 maize plants in total (S15 and S16), 2 strains in Zm cytoplasmic ALT-2-02 maize plants in total (S17 and S18), 2 strains in Zm chloroplastic ALT-2-02 maize plants in total (S19 and S20), 2 strains in Zm cytoplasmic ALT-3-02 maize plants in total (S21 and S22), 2 strains in Zm chloroplastic ALT-3-02 maize plants in total (S23 and S24), and 1 strain in wild- type maize plants (CK2) in total; and 10-15 plants were selected from each strain and tested.

[3] = system: Zm chloroplastic ALT-3-02 maize plants; test: as above; conditions: 36 g ai/ha (4x Hal.); for Average damage % 3 DAT: 3 days after spraying; for Average damage % 7 DAT: 7 days after spraying; for Average damage % 14 DAT: 14 days after spraying; for Average damage % 21 DAT: 21 days after spraying
Text: as §1, §2

[4] = system: Zm cytoplasmic ALT-2-02 maize plants; test: as above; conditions: 36 g ai/ha (4x Hal.); for Average damage % 3 DAT: 3 days after spraying; for Average damage % 7 DAT: 7 days after spraying; for Average damage % 14 DAT: 14 days after spraying; for Average damage % 21 DAT: 21 days after spraying
Text: as §1, §2

[5] = system: Zm cytoplasmic ALT-3-02 maize plants; test: as above; conditions: 36 g ai/ha (4x Hal.); for Average damage % 3 DAT: 3 days after spraying; for Average damage % 7 DAT: 7 days after spraying; for Average damage % 14 DAT: 14 days after spraying; for Average damage % 21 DAT: 21 days after spraying
Text: as §1, §2

[6] = system: Zm cytoplasmic ALT-1-02 maize plants; test: as above; conditions: 36 g ai/ha (4x Hal.); for Average damage % 3 DAT: 3 days after spraying; for Average damage % 7 DAT: 7 days after spraying; for Average damage % 14 DAT: 14 days after spraying; for Average damage % 21 DAT: 21 days after spraying
Text: as §1, §2

[7] = system: Zm chloroplastic ALT-2-02 maize plants; test: as above; conditions: 36 g ai/ha (4x Hal.); for Average damage % 3 DAT: 3 days after spraying; for Average damage % 7 DAT: 7 days after spraying; for Average damage % 14 DAT: 14 days after spraying; for Average damage % 21 DAT: 21 days after spraying
Text: as §1, §2

Compound: COC(=O)c1c(Cl)nn(C)c1S(=O)(=O)NC(=O)Nc1nc(OC)cc(OC)n1 [halosulfuron-methyl, 3-chlorine-5-(4,6-dimethoxypyrimidine-2-aminocarbonylaminosulphonyl)-1-methylpyrazole-4-carboxylic acid methyl ester]
- tolerance of the plants to the herbicide [1]: high level of halosulfuron-methyl herbicide tolerance
- Average damage % 3 DAT ([2]; strain S15): 0%
- Average damage % 7 DAT ([2]; strain S15): 0%
- Average damage % 14 DAT ([2]; strain S15): 0%
- Average damage % 21 DAT ([2]; strain S15): 0%
- Average damage % 3 DAT ([2]; strain S16): 0%
- Average damage % 7 DAT ([2]; strain S16): 0%
- Average damage % 14 DAT ([2]; strain S16): 0%
- Average damage % 21 DAT ([2]; strain S16): 0%
- Average damage % 3 DAT ([3]; strain S23): 0%
- Average damage % 7 DAT ([3]; strain S23): 0%
- Average damage % 14 DAT ([3]; strain S23): 0%
- Average damage % 21 DAT ([3]; strain S23): 0%
- Average damage % 3 DAT ([3]; strain S24): 0%
- Average damage % 7 DAT ([3]; strain S24): 0%
- Average damage % 14 DAT ([3]; strain S24): 0%
- Average damage % 21 DAT ([3]; strain S24): 0%
- Average damage % 3 DAT ([4]; strain S17): 0%
- Average damage % 7 DAT ([4]; strain S17): 3%
- Average damage % 14 DAT ([4]; strain S17): 0%
- Average damage % 21 DAT ([4]; strain S17): 0%
- Average damage % 3 DAT ([4]; strain S18): 0%
- Average damage % 7 DAT ([4]; strain S18): 2%
- Average damage % 14 DAT ([4]; strain S18): 0%
- Average damage % 21 DAT ([4]; strain S18): 0%
- Average damage % 3 DAT ([5]; strain S21): 0%
- Average damage % 7 DAT ([5]; strain S21): 4%
- Average damage % 14 DAT ([5]; strain S21): 0%
- Average damage % 21 DAT ([5]; strain S21): 0%
- Average damage % 3 DAT ([5]; strain S22): 0%
- Average damage % 7 DAT ([5]; strain S22): 5%
- Average damage % 14 DAT ([5]; strain S22): 0%
- Average damage % 21 DAT ([5]; strain S22): 0%
- Average damage % 3 DAT ([6]; strain S13): 0%
- Average damage % 7 DAT ([6]; strain S13): 2%
- Average damage % 14 DAT ([6]; strain S13): 0%
- Average damage % 21 DAT ([6]; strain S13): 0%
- Average damage % 3 DAT ([6]; strain S14): 0%
- Average damage % 7 DAT ([6]; strain S14): 3%
- Average damage % 14 DAT ([6]; strain S14): 0%
- Average damage % 21 DAT ([6]; strain S14): 0%
- Average damage % 3 DAT ([7]; strain S19): 0%
- Average damage % 7 DAT ([7]; strain S19): 0%
- Average damage % 14 DAT ([7]; strain S19): 0%
- Average damage % 21 DAT ([7]; strain S19): 0%
- Average damage % 3 DAT ([7]; strain S20): 0%
- Average damage % 7 DAT ([7]; strain S20): 0%
- Average damage % 14 DAT ([7]; strain S20): 0%
- Average damage % 21 DAT ([7]; strain S20): 0%
